Measurements taken from paper PMC12461339, “Benzoylselenoureas: A Novel Dual-Action Inhibitor Targeting Fungal Growth and Urease Activity in Cryptococcus neoformans” (ACS Omega, 2025).
Values after ≈ are worked out from the molar mass of the structure shown. Like-named read-outs stand apart in the source and are kept apart here.

Legend:
Format in all cases: cell-based
[1] = system: C. neoformans H99; assay: Broth microdilution antifungal assay (MIC) in RPMI or urea medium; conditions: Cryptococcus neoformans
Protocol: (§1) C. neoformans H99 (or ATCC 208821), a standard strain, was used to evaluate the antifungal activity of BSU1-BSU11 and BTU1-BTU11 compounds using the broth microdilution method. The assay was performed in two different culture media: the standard medium RPMI 1640 buffered with […] (RMPI), and the Christensen broth (urea medium: 1 g/L peptone, 1 g/L dextrose, 5 g/L sodium chloride, 2 g/L potassium phosphate, 20 g/L urea, 12 mg/L phenol red, pH 7.0). The compounds were dissolved in dimethyl sulfoxide (DMSO) and diluted in both media, obtaining final concentrations from 0.03 to 128 mg/L in a 96-well plate and final DMSO concentration below 0.5%, considered nontoxic. For assay, yeasts were distributed in each well to obtain a final inoculum of 0.5–2.5 × 10^3 CFU/mL, and the plate was incubated at 35 °C for 48 h.
(§2) The MIC values were determined in both media and were defined as the lowest concentrations of BSU1-BSU11 and BTU1-BTU11 that inhibited 50% of fungal growth visually compared with untreated yeasts (growth control). In addition, the urease activity was indicated by medium color change from orange to pink due to ammonia production and the MICure was defined as the lowest concentration that inhibited the urease activity by visual inspection in urea medium with no color changes. For both assays, two controls were included: untreated yeast group for observation of fungal growth pattern or intracellular urease activity, and wells containing only medium for assay sterility control.

[2] = molecular target: T1, yeast urease activity (Cryptococcus neoformans, UniProt O13465); assay: Inhibition of yeast urease activity in urea (Christensen) medium, colour change (MICure)
T1 construct: endogenous in cells; host or cells: Cryptococcus neoformans H99 (ATCC 208821) yeasts in Christensen urea broth
T1 sequence (O13465 whole entry): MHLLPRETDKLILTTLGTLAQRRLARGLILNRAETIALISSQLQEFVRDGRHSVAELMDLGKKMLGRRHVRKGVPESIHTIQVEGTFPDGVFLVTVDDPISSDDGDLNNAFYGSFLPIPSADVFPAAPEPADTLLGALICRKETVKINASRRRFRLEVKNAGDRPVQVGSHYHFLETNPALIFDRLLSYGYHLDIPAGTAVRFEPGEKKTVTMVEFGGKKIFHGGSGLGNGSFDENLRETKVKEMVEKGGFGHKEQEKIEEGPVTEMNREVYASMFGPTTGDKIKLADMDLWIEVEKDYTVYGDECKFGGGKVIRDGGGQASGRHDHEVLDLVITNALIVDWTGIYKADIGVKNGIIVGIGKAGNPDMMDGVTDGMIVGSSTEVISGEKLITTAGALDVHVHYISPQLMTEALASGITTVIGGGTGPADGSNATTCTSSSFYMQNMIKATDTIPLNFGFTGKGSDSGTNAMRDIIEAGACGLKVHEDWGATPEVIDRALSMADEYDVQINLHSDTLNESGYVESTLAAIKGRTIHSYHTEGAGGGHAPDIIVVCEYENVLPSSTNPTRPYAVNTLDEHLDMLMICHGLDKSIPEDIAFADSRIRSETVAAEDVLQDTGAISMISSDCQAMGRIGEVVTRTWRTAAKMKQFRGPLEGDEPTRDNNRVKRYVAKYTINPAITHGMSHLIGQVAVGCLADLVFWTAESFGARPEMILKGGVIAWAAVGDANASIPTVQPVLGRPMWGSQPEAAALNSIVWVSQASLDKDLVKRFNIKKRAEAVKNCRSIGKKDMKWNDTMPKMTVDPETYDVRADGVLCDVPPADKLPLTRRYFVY
Protocol: The inhibitory activity against yeast urease was assessed using Christensen’s medium, which contains urea to induce URE1 gene expression. […] Even in the presence of fungal growth, inhibition of urease activity was evidenced by the absence of medium color change, indicating suppressed ammonia production.
as §1, §2

[3] = system: C. neoformans H99; assay: Minimum fungicidal concentration by subculturing after MIC reading; conditions: Cryptococcus neoformans
Protocol: After MIC readings, the MFC values were determined by subculturing, at 35 °C for 48 h, of all concentrations that inhibited the fungal growth; and then MFC was defined as the lowest concentration of the compound capable of reducing ≥99% viability of the initial fungal inoculum. ,

[4] = H99, BTU series, 50% inhibition of fungal growth, RPMI medium, read-out: MIC RPMI
[5] = H99, BTU series, 50% inhibition of fungal growth, urea medium, read-out: MIC urea
[6] = H99, Table S1, RPMI medium, C. neoformans H99, read-out: MIC
[7] = H99, Table S1, urea medium, C. neoformans H99, read-out: MIC
[8] = BTU series, 100% inhibition of yeast urease activity in urea medium
[9] = Table S1, urea medium, 100% inhibition of yeast urease activity
[10] = H99, BTU series, after assay in RPMI medium, read-out: MFC
[11] = H99, Table S1, RPMI medium line, read-out: MFC
[12] = H99, Table S1, urea medium line, read-out: MFC
[13] = H99, Table S1, RPMI medium, C. neoformans H99
[14] = H99, Table S1, urea medium, C. neoformans H99
[15] = H99, read-out: MIC RPMI, BTU series, 50% inhibition of fungal growth, RPMI medium
[16] = H99, read-out: MIC urea, BTU series, 50% inhibition of fungal growth, urea medium
[17] = H99, BTU series, after assay in RPMI medium
[18] = H99, Table S1, RPMI medium line
[19] = H99, Table S1, urea medium line

Row | Structure (SMILES) | MIC [1, 4] | MIC [1, 5] | MIC [1, 6] | MIC [1, 7] | MICURE [2, 8] | MICURE [2, 9] | MFC [3, 10] | MFC [3, 11] | MFC [3, 12] | MIC [1, 13] | MIC [1, 14] | MIC [1, 15] | MIC [1, 16] | MFC [3, 17] | MFC [3, 18] | MFC [3, 19]
1 | Cc1ccc(NC(=S)NC(=O)c2ccccc2)cc1 [BTU2] | > 128 µg/mL | 32 µg/mL (≈ 118 µM) | > 128 µg/mL | 32 µg/mL (≈ 118 µM) | <0.25 mg/L | ≤ 0.25 mg/L | > 128 µg/mL | > 128 µg/mL | > 128 µg/mL |  |  |  |  |  |  | 
2 | CC(C)(C)c1ccc(NC(=S)NC(=O)c2ccccc2)cc1 [BTU3] | 8 µg/mL (≈ 25.6 µM) | 1 µg/mL (≈ 3.2 µM) | 8 µg/mL (≈ 25.6 µM) | 1 µg/mL (≈ 3.2 µM) | 0.5 mg/L | 0.5 mg/L | > 128 µg/mL | > 128 µg/mL | 128 µg/mL (≈ 410 µM) |  |  |  |  |  |  | 
3 | COc1ccccc1NC(=S)NC(=O)c1ccccc1 [BTU4] | > 128 µg/mL | 64 µg/mL (≈ 223 µM) | > 128 µg/mL | 1 µg/mL (≈ 3.49 µM) | 32 mg/L | ≤ 0.25 mg/L | > 128 µg/mL | > 128 µg/mL | > 128 µg/mL |  |  |  |  |  |  | 
4 | COc1cccc(NC(=S)NC(=O)c2ccccc2)c1 [BTU5] | 32 µg/mL (≈ 112 µM) | 4 µg/mL (≈ 14 µM) | > 128 µg/mL | 4 µg/mL (≈ 14 µM) | 4 mg/L | ≤ 0.25 mg/L | > 128 µg/mL | > 128 µg/mL | > 128 µg/mL |  |  |  |  |  |  | 
5 | O=C(NC(=S)Nc1ccc(Cl)cc1)c1ccccc1 [BTU6] | > 128 µg/mL | 1 µg/mL (≈ 3.44 µM) | > 128 µg/mL | 32 µg/mL (≈ 110 µM) | <0.25 mg/L | ≤ 0.25 mg/L | > 128 µg/mL | > 128 µg/mL | 128 µg/mL (≈ 440 µM) |  |  |  |  |  |  | 
6 | O=C(NC(=S)Nc1cccc(Cl)c1)c1ccccc1 [BTU7] | > 128 µg/mL | 4 µg/mL (≈ 13.8 µM) | > 128 µg/mL | 32 µg/mL (≈ 110 µM) | <0.25 mg/L | 2 mg/L | > 128 µg/mL | > 128 µg/mL | 64 µg/mL (≈ 220 µM) |  |  |  |  |  |  | 
7 | O=C(NC(=S)Nc1ccc(Br)cc1)c1ccccc1 [BTU8] | > 128 µg/mL | 32 µg/mL (≈ 95.5 µM) | > 128 µg/mL | 64 µg/mL (≈ 191 µM) | <0.25 mg/L | 32 mg/L | > 128 µg/mL | > 128 µg/mL | > 128 µg/mL |  |  |  |  |  |  | 
8 | O=C(NC(=S)Nc1cccc(Br)c1)c1ccccc1 [BTU9] | > 128 µg/mL | 32 µg/mL (≈ 95.5 µM) | 32 µg/mL (≈ 95.5 µM) | 4 µg/mL (≈ 11.9 µM) | 2 mg/L | 4 mg/L | > 128 µg/mL | > 128 µg/mL | 32 µg/mL (≈ 95.5 µM) |  |  |  |  |  |  | 
9 | O=C(NC(=S)Nc1ccccc1[N+](=O)[O-])c1ccccc1 [BTU10] |  |  |  |  | >128 mg/L | > 128 mg/L |  |  |  | > 128 µg/mL | > 128 µg/mL | > 128 µg/mL | > 128 µg/mL | > 128 µg/mL | > 128 µg/mL | > 128 µg/mL
10 | O=C(NC(=S)Nc1cccc([N+](=O)[O-])c1)c1ccccc1 [BTU11] |  |  |  |  | >128 mg/L | > 128 mg/L |  |  |  | > 128 µg/mL | > 128 µg/mL | > 128 µg/mL | > 128 µg/mL | > 128 µg/mL | > 128 µg/mL | > 128 µg/mL
